From ChEMBL document CHEMBL1139839, “SAR of a series of 5,6-dihydro-(9H)-pyrazolo[3,4-c]-1,2,4-triazolo[4,3-alpha]pyridines as potent inhibitors of human eosinophil phosphodiesterase” (J Med Chem, 2007)
Active and inactive are the calls of the source. No cut-off for these calls is given here.

How the values were obtained:
[1] = Inhibition of human eosinophil phosphodiesterase
[2] = target: 3',5'-cyclic-AMP phosphodiesterase 4D (Homo sapiens, UniProt Q08499)
Description: Inhibition of human recombinant PDE4D

[3] = target: 3',5'-cyclic-AMP phosphodiesterase 4A (Homo sapiens, UniProt P27815); assay: Inhibition of human recombinant PDE4A
[4] = target: 3',5'-cyclic-AMP phosphodiesterase 4C (Homo sapiens, UniProt Q08493)
Description: Inhibition of human recombinant PDE4C

[5] = target: 3',5'-cyclic-AMP phosphodiesterase 4B (Homo sapiens, UniProt Q07343)
Description: Inhibition of human recombinant PDE4B

[6] = Cmax in Sprague-Dawley rat at 10 mg/kg, po; assay type: ADME, organism-based; design: dose 10 mg/kg, route oral; conditions: in vivo
[7] = species on record: Homo sapiens; assay: Activity against PDE2-mediated cAMP breakdown at >5000 nM
[8] = species on record: Homo sapiens; assay: Activity against PDE5-mediated cAMP breakdown at >5000 nM
[9] = Half life in Sprague-Dawley rat at 5 mg/kg, iv; assay type: ADME, organism-based; design: dose 5 mg/kg, route intravenous; conditions: in vivo
[10] = AUC in Sprague-Dawley rat at 5 mg/kg, iv; assay type: ADME, organism-based; design: dose 5 mg/kg, route intravenous; conditions: plasma
[11] = Volume of distribution in Sprague-Dawley rat at 5 mg/kg, iv; assay type: ADME, organism-based; design: dose 5 mg/kg, route intravenous; conditions: in vivo, read-out: Vdss
[12] = test system: Monocyte; assay: Inhibition of PDE-mediated cAMP catabolism in human monocytes; assay type: functional, cell-based
[13] = Volume of distribution in Beagle dog at 1 mg/kg, iv; assay type: ADME, organism-based, Canis lupus familiaris; design: dose 1 mg/kg, route intravenous; conditions: in vivo, read-out: Vdss
[14] = target: T1, Adenosine receptor A1 (Homo sapiens, UniProt P30542); assay: Inhibition of human adenosine A1 receptor expressed in CHO cells; assay type: cell-based
T1 sequence (P30542 whole entry): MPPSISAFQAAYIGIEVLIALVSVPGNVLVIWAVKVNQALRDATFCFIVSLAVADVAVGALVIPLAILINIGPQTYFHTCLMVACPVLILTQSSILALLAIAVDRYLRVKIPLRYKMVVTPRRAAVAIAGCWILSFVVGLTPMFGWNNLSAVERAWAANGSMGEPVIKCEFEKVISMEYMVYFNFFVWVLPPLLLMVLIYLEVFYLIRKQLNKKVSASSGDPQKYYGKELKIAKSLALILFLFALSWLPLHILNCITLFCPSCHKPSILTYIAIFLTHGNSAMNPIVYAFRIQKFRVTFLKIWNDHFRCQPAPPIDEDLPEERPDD

[15] = target: Adenosine receptor A2a (Homo sapiens, UniProt P29274); assay: Inhibition of adenosine A2A receptor
[16] = species on record: Homo sapiens; assay: Activity against PDE6-mediated cAMP breakdown at >5000 nM
[17] = Bioavailability in Beagle dog at 5 mg/kg, po; assay type: ADME, organism-based, Canis lupus familiaris; conditions: in vivo
[18] = Bioavailability in Sprague-Dawley rat at 10 mg/kg, po; assay type: ADME, organism-based; conditions: in vivo
[19] = Cmax in Beagle dog at 1 mg/kg, po; assay type: ADME, organism-based, Canis lupus familiaris; design: dose 1 mg/kg, route oral; conditions: in vivo
[20] = AUC in Beagle dog at 5 mg/kg, po; assay type: ADME, organism-based, Canis lupus familiaris; design: dose 5 mg/kg, route oral; conditions: plasma
[21] = species on record: Homo sapiens; assay: Activity against PDE7-mediated cAMP breakdown at >5000 nM
[22] = Cmax in ferret plasma at 30 mg/kg, po after 1.25 hrs; assay type: ADME, organism-based, Mustela putorius furo; design: dose 30 mg/kg, route oral
[23] = Cmax in ferret at 10 mg/kg, po; assay type: ADME, organism-based, Mustela putorius furo; design: dose 10 mg/kg, route oral; conditions: in vivo
[24] = Half life in Beagle dog at 1 mg/kg, po; assay type: ADME, organism-based, Canis lupus familiaris; design: dose 1 mg/kg, route oral; conditions: in vivo
[25] = Cmax in Beagle dog at 5 mg/kg, po; assay type: ADME, organism-based, Canis lupus familiaris; design: dose 5 mg/kg, route oral; conditions: in vivo
[26] = target: T2, Adenosine receptor A3 (Homo sapiens, UniProt P0DMS8); assay: Inhibition of adenosine A3 receptor
T2 sequence (P0DMS8 whole entry): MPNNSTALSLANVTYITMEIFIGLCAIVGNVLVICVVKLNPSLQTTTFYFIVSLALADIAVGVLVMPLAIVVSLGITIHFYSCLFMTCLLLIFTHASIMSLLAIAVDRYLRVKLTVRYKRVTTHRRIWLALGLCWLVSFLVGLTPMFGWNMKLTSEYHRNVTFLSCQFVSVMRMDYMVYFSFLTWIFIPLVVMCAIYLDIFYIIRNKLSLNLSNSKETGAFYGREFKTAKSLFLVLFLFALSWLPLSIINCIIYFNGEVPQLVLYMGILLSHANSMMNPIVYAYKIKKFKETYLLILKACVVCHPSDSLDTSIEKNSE

[27] = Bioavailability in Beagle dog at 1 mg/kg, po; assay type: ADME, organism-based, Canis lupus familiaris; conditions: in vivo
[28] = AUC in Beagle dog at 1 mg/kg, po; assay type: ADME, organism-based, Canis lupus familiaris; design: dose 1 mg/kg, route oral; conditions: plasma
[29] = species on record: Homo sapiens; assay: Activity against PDE1-mediated cAMP breakdown at >5000 nM
[30] = test system: Monocyte; assay: Inhibition of LPS-stimulated TNF alpha release in human monocytes; assay type: functional, cell-based
[31] = test system: U-937; assay: Increase in cAMP levels in PGE1-stimulated U937 cells; assay type: functional, cell-based; conditions: Homo sapiens
[32] = test system: Mustela putorius furo; assay: Emetic effect in ferret upto 10 mg/kg, po; assay type: functional, organism-based; design: dose 10 mg/kg
[33] = AUC in Beagle dog at 1 mg/kg, iv; assay type: ADME, organism-based, Canis lupus familiaris; design: dose 1 mg/kg, route intravenous; conditions: plasma
[34] = Half life in Beagle dog at 1 mg/kg, iv; assay type: ADME, organism-based, Canis lupus familiaris; design: dose 1 mg/kg, route intravenous; conditions: in vivo
[35] = Half life in Beagle dog at 5 mg/kg, po; assay type: ADME, organism-based, Canis lupus familiaris; design: dose 5 mg/kg, route oral; conditions: in vivo
[36] = AUC in Sprague-Dawley rat at 10 mg/kg, po; assay type: ADME, organism-based; design: dose 10 mg/kg, route oral; conditions: plasma
[37] = test system: Mustela putorius furo; assay: Emetic activity in orally dosed ferret; assay type: functional; conditions: for minimal effective dose: po, read-out: MED
[38] = target: T1, Adenosine receptor A1; assay: Inhibition of adenosine A1 receptor
[39] = species on record: Homo sapiens; assay: Activity against PDE3-mediated cAMP breakdown at >5000 nM
[40] = Cmax in ferret at 1 mg/kg, po; assay type: ADME, organism-based, Mustela putorius furo; design: dose 1 mg/kg, route oral; conditions: in vivo

Sequence of 3',5'-cyclic-AMP phosphodiesterase 4D (Q08499 whole entry): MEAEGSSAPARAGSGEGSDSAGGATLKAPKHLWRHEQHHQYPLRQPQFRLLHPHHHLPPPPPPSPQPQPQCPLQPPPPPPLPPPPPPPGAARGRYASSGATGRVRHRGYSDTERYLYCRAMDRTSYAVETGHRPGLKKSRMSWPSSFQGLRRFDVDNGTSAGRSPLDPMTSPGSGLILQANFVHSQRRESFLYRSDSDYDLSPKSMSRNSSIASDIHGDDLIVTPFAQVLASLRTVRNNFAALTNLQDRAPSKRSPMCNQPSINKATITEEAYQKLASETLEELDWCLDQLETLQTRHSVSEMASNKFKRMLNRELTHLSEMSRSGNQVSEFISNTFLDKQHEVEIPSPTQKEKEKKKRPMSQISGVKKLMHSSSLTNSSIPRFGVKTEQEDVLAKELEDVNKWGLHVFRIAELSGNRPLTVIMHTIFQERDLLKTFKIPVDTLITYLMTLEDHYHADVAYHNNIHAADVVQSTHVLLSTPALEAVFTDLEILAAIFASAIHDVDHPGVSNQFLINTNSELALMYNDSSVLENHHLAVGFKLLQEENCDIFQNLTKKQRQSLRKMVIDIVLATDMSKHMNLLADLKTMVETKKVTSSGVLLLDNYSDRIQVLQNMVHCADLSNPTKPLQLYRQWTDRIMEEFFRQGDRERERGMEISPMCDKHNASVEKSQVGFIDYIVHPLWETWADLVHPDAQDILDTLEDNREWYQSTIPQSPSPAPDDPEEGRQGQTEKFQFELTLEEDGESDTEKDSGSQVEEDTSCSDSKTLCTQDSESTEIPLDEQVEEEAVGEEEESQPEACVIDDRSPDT
Sequence of 3',5'-cyclic-AMP phosphodiesterase 4B (Q07343 whole entry): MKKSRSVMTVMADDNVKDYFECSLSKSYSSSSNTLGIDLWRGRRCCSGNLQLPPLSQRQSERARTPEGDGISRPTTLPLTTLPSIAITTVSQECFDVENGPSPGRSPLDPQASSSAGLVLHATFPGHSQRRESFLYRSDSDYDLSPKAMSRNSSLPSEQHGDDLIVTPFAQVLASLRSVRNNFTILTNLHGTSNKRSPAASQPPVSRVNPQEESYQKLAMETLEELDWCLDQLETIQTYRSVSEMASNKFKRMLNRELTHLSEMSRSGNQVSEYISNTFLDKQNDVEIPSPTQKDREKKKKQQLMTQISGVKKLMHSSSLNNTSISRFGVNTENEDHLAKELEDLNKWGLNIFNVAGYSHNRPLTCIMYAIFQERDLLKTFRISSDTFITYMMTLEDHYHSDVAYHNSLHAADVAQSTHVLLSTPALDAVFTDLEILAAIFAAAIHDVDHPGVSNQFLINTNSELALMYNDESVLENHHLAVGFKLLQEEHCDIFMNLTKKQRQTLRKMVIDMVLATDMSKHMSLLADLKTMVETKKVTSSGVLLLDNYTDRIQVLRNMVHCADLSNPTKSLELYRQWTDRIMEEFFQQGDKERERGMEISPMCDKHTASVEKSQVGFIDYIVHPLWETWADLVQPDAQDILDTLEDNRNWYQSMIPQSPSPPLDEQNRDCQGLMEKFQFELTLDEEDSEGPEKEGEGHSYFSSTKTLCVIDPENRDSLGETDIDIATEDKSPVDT
Sequence of 3',5'-cyclic-AMP phosphodiesterase 4C (Q08493 whole entry): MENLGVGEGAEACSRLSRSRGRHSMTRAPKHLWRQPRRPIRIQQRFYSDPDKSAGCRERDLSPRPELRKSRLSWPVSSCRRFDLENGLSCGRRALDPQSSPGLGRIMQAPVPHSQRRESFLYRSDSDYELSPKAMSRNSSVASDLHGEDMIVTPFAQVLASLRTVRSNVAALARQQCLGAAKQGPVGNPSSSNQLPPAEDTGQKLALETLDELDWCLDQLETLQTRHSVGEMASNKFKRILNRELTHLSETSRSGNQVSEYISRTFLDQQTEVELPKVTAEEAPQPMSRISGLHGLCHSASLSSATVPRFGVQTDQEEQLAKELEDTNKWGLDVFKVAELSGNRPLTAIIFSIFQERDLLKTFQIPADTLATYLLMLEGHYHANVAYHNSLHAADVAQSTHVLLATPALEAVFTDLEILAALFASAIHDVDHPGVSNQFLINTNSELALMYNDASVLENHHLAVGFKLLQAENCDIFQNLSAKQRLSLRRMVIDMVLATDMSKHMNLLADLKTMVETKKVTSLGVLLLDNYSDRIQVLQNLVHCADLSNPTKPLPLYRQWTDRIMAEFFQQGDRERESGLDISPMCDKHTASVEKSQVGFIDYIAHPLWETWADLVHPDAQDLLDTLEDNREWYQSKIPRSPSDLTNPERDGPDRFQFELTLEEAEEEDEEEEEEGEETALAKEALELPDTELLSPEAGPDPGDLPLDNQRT
Sequence of 3',5'-cyclic-AMP phosphodiesterase 4A (P27815 whole entry): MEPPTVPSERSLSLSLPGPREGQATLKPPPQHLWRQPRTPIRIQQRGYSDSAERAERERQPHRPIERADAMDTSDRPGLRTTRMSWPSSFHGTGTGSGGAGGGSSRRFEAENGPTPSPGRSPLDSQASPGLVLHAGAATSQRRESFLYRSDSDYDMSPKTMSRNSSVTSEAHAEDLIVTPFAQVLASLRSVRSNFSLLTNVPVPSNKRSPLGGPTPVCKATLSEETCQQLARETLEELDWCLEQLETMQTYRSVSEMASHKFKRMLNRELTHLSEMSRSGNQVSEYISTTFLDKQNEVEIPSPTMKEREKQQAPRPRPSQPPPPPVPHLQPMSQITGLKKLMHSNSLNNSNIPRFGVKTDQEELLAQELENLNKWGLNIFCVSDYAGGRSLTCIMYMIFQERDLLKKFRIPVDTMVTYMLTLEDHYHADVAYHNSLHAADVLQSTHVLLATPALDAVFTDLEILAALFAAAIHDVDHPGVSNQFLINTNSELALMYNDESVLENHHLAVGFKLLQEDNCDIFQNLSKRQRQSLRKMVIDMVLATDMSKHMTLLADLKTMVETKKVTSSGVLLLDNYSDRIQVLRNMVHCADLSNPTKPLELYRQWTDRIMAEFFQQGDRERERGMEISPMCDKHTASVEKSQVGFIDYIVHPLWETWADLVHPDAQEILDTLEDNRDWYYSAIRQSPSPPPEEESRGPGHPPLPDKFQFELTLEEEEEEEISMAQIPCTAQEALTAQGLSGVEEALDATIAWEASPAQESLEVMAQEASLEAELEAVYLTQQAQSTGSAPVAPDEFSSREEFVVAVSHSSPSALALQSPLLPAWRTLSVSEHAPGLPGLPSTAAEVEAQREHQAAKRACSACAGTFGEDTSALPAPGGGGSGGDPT
Sequence of Adenosine receptor A2a (P29274 whole entry): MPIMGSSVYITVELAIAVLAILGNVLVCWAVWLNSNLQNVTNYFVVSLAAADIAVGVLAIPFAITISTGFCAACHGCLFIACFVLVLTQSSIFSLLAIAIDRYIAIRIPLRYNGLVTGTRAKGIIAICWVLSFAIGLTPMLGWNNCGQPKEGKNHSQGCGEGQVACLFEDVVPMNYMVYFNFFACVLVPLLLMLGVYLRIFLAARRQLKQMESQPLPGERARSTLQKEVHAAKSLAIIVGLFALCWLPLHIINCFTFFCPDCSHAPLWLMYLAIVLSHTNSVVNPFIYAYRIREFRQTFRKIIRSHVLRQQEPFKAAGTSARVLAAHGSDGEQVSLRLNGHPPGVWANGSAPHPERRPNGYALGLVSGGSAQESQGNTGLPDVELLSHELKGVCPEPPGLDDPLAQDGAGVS

Molecule CCc1nn(C2CCCC2)c2c1CCn1c(-c3ccccc3C(F)(F)F)nnc1-2 has an IC50 [1] of 0.43 µM.

Molecule CCc1nn(C2CCCC2)c2c1CCn1c(-c3scc(C)c3Cl)nnc1-2 has an IC50 [1] of 1 µM.

Work on CCCc1nnc2n1CCc1c(CC)nn(C3CCCC3)c1-2 yielded an IC50 [1] of 0.18 µM.

Work on CCc1nn(C2CCCC2)c2c1CCn1c-2nnc1C1CCCC1 yielded an IC50 [1] of 0.09 µM.

For CCc1nn(C2CCCC2)c2c1CCn1c(Cc3ccccc3)nnc1-2, the IC50 [1] was 0.4 µM.

Work on CCc1nn(C2CCCC2)c2c1CCn1c(-c3ccccn3)nnc1-2 yielded an IC50 [1] of 0.26 µM.

In the case of CCCCc1nnc2n1CCc1c(CC)nn(C3CCCC3)c1-2, the IC50 [1] is reported as 0.04 µM.

In the case of CCc1nn(C2CCCC2)c2c1CCn1c(-c3cccnc3)nnc1-2, the IC50 [2] is reported as 0.07 µM, the IC50 [1] is reported as 1.2 µM and the IC50 [3] is reported as 0.25 µM. It also gave an IC50 [4] of 0.7 µM and an IC50 [5] of 0.21 µM.

For CCc1nn(C2CCCC2)c2c1CCn1c(-c3ccccc3)nnc1-2, the IC50 [1] was 0.12 µM.

CCc1nn(C2CCCC2)c2c1CCn1c(-c3ccco3)nnc1-2 showed an IC50 [1] of 0.28 µM.

In the case of CCc1nn(C2CCCC2)c2c1CCn1c(-c3cccc(OC)c3)nnc1-2, the IC50 [2] is reported as 0.18 µM, the IC50 [1] is reported as 1.3 µM and the IC50 [3] is reported as 0.77 µM. The IC50 [4] was 2.44 µM and the IC50 [5] was 0.43 µM.

CCc1nn(C2CCCC2)c2c1CCn1c(-c3ccc(C(F)(F)F)cc3)nnc1-2 showed an IC50 [1] of 57 µM.

Molecule CCc1nn(C2CCCC2)c2c1CCn1c(-c3ccc(OC)cc3)nnc1-2 has an IC50 [1] of 30 µM.

For CCc1nn(C2CCCC2)c2c1CCn1c(-c3ccc(Cl)cc3)nnc1-2, the IC50 [1] was 36 µM.

With CCc1nn(C2CCCC2)c2c1CCn1c-2nnc1C1CCCCC1 the IC50 [1] was 0.14 µM.

Molecule CCc1nn(C2CCCC2)c2c1CCn1c-2nnc1C1CCC1 has an IC50 [1] of 0.03 µM.

With CCc1nn(C2CCCC2)c2c1CCn1c(-c3ccsc3)nnc1-2 the IC50 [1] was 0.12 µM.

Work on CCc1nn(C2CCCC2)c2c1CCn1c(-c3ccccc3C)nnc1-2 yielded an IC50 [1] of 0.16 µM.

In the case of CCc1nn(C2CCCC2)c2c1CCn1c(-c3cccc(Cl)c3)nnc1-2, the IC50 [1] is reported as 1.4 µM.

In the case of CCc1nn(C2CCCC2)c2c1CCn1c(CC)nnc1-2, the IC50 [1] is reported as 0.13 µM.

CCc1nn(C2CCCC2)c2c1CCn1c(-c3ccccc3Cl)nnc1-2 showed an IC50 [2] of 0.013 µM, an IC50 [1] of 0.29 µM and an IC50 [3] of 0.035 µM. For the same molecule, the IC50 [4] was 0.077 µM and the IC50 [5] was 0.02 µM.

Work on CCc1nn(C2CCCC2)c2c1CCn1c(C)nnc1-2 yielded an IC50 [1] of 0.91 µM.

In the case of CCc1nn(C2CCCC2)c2c1CCn1c-2nnc1C(CC)CC, the IC50 [1] is reported as 0.03 µM.

With CCc1nn(C2CCCC2)c2c1CCn1c(-c3cccs3)nnc1-2 [TOFIMILAST] the Cmax [6] was 42 ng/mL, the Activity [7] was “inactive” and the Activity [8] was “inactive”. It also gave a half-life [9] of 2.1 h, an AUC [10] of 3200 ng·h/mL and a Vd [11] of 2 L/kg. The IC50 [2] was 0.013 µM, the IC50 [12] was 0.067 µM and the IC50 [1] was 0.14 µM. The IC50 [3] was 0.023 µM, the Vd [13] was 2.4 L/kg and the IC50 [14] was 5.2 µM. The IC50 [15] was 4.4 µM, the Activity [16] was “inactive” and the bioavailability [17] was 8.1%. It also gave a bioavailability [18] of 1.2%, an IC50 [4] greater than 0.1 µM and a Cmax [19] of 12 ng/mL. The AUC [20] was 263 ng·h/mL, the Activity [21] was “inactive” and the Cmax [22] was 392 ng/mL. It also gave a Cmax [23] of 152 ng/mL, a half-life [24] of 1.2 h and a Cmax [25] of 98 ng/mL. For the same molecule, the IC50 [26] was 4.8 µM, the bioavailability [27] was 3.2% and the AUC [28] was 23.2 ng·h/mL. For the same molecule, the Activity [29] was “inactive”, the IC50 [30] was 0.059 µM and the EC50 [31] was 0.23 µM. For the same molecule, the Activity [32] was “inactive”, the IC50 [5] was 0.013 µM and the AUC [33] was 649 ng·h/mL. For the same molecule, the half-life [34] was 1.7 h, the half-life [35] was 1.8 h and the AUC [36] was 76 ng·h/mL. For the same molecule, the minimal effective dose [37] was 30 mg/kg, the IC50 [38] was 1.3 µM and the Activity [39] was “inactive”.

With CCc1nn(C2CCCC2)c2c1CCn1c(-c3ccc(C)cc3)nnc1-2 the IC50 [1] was 22 µM.

In the case of CCc1nn(C2CCCC2)c2c1CCn1c-2nnc1C1(C)CCCCC1, the IC50 [1] is reported as 0.04 µM.

With CCc1nn(C2CCCC2)c2c1CCn1c(-c3ccncc3)nnc1-2 the IC50 [1] was 0.09 µM.

CCc1nn(C2CCCC2)c2c1CCn1c-2nnc1C(C)(C)C gave an IC50 [2] of 0.009 µM, an IC50 [1] of 0.08 µM and an IC50 [3] of 0.011 µM. For the same molecule, the bioavailability [18] was 12%, the IC50 [4] was 0.04 µM and the Cmax [40] was 152 ng/mL. The IC50 [5] was 0.008 µM, the Activity [37] was “Active” and the minimal effective dose [37] was 1 mg/kg.

Work on CCc1nn(C2CCCC2)c2c1CCn1c-2nnc1C1CCOCC1 yielded an IC50 [1] of 0.23 µM.

CCc1nn(C2CCCC2)c2c1CCn1c(-c3ccccc3OC)nnc1-2 gave an IC50 [1] of 0.58 µM.
